Legend:
Experiment in all cases: Study of cytotoxicity (CellTiter-Blue, 72 hours)
Type in all cases: cell-based
[1] = test system: A549; conditions: Homo sapiens, A549; 72 hours of incubation; read-out: IC50 for different cell lines: A549
Protocol: (§1) The biological activity of the compounds of the invention was studied in vitro on 7 human cancer cell lines with different tissue origins (HCT116: colorectal carcinoma; K562: chronic myeloid leukemia; B16-F10: melanoma; U87: glioblastoma; A549: lung cancer and MDA-MB 231 and MDA-MB 435: breast cancer). The cells selected for the study were incubated at 37° C. in the presence of one of the compounds added into the culture medium at different concentrations. The whole of the conducted experiments allowed determination of the toxicity level of the tested compound, its effect on the course of the cell cycle as well as its capacity of inducing cell death by apoptosis.
(§2) The cancer cell lines originate from the American Type Culture Collection (Rockville, Md., USA) and were grown according to the recommendations of the supplier.
(§3) The cells A549, U87, MDA-MB231, MDA-MB435 and B16F10 were grown in a culture medium “Dulbecco minimal essential medium” (DMEM) containing 4.5 g/L of glucose and supplemented with 10% fetal calf serum and 1% glutamine. The K562 and HCT116 were grown in an RPMI 1640 medium containing 10% fetal calf serum and 1% glutamine. All the cell lines were maintained in the culture at 37° C. in a humid atmosphere containing 5% of CO2. Cell viability was evaluated by using the reagent “CellTiter-Blue™” (Promega, Wis., USA) while observing the instructions of the manufacturer. The cells were sown in 96-well culture plates with 5000 cells per well in 50 μL of culture medium. After 24 hours of culture, the compounds of general formula (I) dissolved in DMSO were individually added into each of the wells in an amount of 50 μl per well. All the compounds were tested in triplicate for each defined concentration and each experiment was repeated three times. After 72 hours of incubation, 20 μL of resazurin were added in each well. After 2 hours of incubation, the emitted fluorescence was measured at 590 nm after excitation at 560 nm by means of a fluorescence reader of the Victor type (Perkin-Elmer, USA).
(§4) The concentration of each of the compounds which induces the death of 50% of the cells (IC50) was determined after 72 hours of incubation. Certain compounds according to the invention have an IC50 of the order of one nanomolar concentration, therefore equivalent to CA-4 taken as a reference.

[2] = test system: MDA-MB 435; conditions: Homo sapiens, MDA-MB-435; 72 hours of incubation; read-out: IC50 for different cell lines: M435
Protocol: as §1, §2, §3, §4

[3] = test system: HCT116; conditions: Homo sapiens, HCT-116; 72 hours of incubation; read-out: IC50 for different cell lines: HCT116
Protocol: as §1, §2, §3, §4

[4] = test system: MDA-MB 231; conditions: Homo sapiens, MDA-MB-231; 72 hours of incubation; read-out: IC50 for different cell lines: M231
Protocol: as §1, §2, §3, §4

[5] = test system: U87; conditions: Homo sapiens, U-87 MG; 72 hours of incubation; read-out: IC50 for different cell lines: U87
Protocol: as §1, §2, §3, §4

[6] = test system: K562; conditions: Homo sapiens, 72 hours of incubation, read-out: IC50 for different cell lines: K562
Protocol: as §1, §2, §3, §4

Compound: C=C(c1ccc(OC)c(O)c1)c1cc(OC)c(OC)c(OC)c1 [(I-1)]
- IC50 [1]: 8 nM
- IC50 [2]: 4.5 nM
- IC50 [3]: 2 to 4 nM
- IC50 [4]: 4 nM
- IC50 [5]: 8 nM
- IC50 [6]: 5 nM
